Reference: ChEMBL document CHEMBL6078616, “Seven-membered N-heterocycles as approved drugs and promising leads in medicinal chemistry as well as the metal-free domino access to their scaffolds” (Eur J Med Chem, 2024)

Experiments:
MCF7 = assay: Antiproliferative activity against human MCF7 cells assessed as reduction in cell viability; type: functional, cell-based
Sphingosine kinase 1 = Sphingosine kinase 1 (Homo sapiens, UniProt Q9NYA1); assay: Inhibition of SPHK1 (unknown origin)
Histone deacetylase 1 = Histone deacetylase 1 (Homo sapiens, UniProt Q13547); assay: Inhibition of HDAC1 (unknown origin)
Histone deacetylase 1, sequence (Q13547 whole entry): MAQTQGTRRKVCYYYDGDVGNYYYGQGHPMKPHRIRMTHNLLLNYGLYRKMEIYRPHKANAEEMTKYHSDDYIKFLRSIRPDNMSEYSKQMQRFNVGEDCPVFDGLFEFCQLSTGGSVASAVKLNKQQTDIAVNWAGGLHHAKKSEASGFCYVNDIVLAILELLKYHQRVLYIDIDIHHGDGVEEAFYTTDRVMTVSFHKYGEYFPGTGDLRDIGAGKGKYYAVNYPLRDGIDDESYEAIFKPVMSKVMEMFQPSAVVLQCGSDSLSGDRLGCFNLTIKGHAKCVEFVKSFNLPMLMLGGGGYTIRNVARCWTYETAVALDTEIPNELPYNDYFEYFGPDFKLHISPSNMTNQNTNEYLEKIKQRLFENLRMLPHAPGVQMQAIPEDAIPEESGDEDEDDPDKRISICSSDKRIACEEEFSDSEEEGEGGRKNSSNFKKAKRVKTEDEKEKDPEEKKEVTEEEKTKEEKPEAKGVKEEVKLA

Histone deacetylase 3 = Histone deacetylase 3 (Homo sapiens, UniProt O15379); assay: Inhibition of HDAC3 (unknown origin)
Histone deacetylase 2 = Histone deacetylase 2 (Homo sapiens, UniProt Q92769); assay: Inhibition of HDAC2 (unknown origin)
Histone deacetylase 2, sequence (Q92769 whole entry): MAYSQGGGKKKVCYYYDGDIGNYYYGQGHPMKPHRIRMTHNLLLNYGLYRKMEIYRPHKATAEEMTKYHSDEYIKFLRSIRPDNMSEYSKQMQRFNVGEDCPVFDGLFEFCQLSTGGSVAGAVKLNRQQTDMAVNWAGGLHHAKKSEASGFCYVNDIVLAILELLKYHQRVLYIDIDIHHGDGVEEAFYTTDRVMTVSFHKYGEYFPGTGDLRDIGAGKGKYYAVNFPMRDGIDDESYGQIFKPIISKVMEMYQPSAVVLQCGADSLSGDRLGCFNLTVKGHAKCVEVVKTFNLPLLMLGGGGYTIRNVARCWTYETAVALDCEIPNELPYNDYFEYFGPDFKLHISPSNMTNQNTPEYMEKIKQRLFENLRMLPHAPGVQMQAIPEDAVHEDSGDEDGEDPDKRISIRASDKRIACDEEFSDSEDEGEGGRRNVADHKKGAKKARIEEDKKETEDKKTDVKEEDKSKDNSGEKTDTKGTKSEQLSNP

Histone deacetylase 5 = Histone deacetylase 5 (Homo sapiens, UniProt Q9UQL6); assay: Inhibition of HDAC5 (unknown origin)
Histone deacetylase 5, sequence (Q9UQL6 whole entry): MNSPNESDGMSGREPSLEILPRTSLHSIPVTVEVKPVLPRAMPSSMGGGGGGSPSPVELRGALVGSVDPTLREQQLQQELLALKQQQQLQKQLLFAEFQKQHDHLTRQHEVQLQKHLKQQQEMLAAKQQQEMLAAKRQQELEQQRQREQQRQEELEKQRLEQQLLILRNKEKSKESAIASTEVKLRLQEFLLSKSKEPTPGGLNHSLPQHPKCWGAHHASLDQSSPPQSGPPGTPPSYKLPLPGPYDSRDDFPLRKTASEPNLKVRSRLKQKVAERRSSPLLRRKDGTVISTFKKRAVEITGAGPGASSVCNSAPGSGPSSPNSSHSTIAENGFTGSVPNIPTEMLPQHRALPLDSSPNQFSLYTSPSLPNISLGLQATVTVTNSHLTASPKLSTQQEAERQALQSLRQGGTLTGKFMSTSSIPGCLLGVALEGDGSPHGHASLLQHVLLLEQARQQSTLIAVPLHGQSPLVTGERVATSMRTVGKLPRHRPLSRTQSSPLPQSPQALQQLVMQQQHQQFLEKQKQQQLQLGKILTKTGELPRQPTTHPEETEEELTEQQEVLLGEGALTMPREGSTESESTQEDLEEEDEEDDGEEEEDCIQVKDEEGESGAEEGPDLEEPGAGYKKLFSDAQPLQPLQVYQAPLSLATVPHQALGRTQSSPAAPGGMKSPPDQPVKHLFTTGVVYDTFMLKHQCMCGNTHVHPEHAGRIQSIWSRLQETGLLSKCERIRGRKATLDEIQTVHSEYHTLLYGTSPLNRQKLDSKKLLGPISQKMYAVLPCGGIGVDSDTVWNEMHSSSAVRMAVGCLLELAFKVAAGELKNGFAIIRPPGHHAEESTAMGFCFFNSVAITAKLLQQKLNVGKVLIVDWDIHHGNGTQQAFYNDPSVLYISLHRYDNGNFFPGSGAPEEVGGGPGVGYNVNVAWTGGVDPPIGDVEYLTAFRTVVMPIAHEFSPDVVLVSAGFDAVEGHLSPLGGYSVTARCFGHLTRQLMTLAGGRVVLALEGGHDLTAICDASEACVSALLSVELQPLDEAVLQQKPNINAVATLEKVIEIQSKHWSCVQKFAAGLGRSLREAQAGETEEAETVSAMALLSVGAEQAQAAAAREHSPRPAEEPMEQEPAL

[1] = target: T1, Protein deacetylase HDAC6 (Homo sapiens, UniProt Q9UBN7); assay: Inhibition of HDAC6 (unknown origin)
T1 sequence (Q9UBN7 whole entry): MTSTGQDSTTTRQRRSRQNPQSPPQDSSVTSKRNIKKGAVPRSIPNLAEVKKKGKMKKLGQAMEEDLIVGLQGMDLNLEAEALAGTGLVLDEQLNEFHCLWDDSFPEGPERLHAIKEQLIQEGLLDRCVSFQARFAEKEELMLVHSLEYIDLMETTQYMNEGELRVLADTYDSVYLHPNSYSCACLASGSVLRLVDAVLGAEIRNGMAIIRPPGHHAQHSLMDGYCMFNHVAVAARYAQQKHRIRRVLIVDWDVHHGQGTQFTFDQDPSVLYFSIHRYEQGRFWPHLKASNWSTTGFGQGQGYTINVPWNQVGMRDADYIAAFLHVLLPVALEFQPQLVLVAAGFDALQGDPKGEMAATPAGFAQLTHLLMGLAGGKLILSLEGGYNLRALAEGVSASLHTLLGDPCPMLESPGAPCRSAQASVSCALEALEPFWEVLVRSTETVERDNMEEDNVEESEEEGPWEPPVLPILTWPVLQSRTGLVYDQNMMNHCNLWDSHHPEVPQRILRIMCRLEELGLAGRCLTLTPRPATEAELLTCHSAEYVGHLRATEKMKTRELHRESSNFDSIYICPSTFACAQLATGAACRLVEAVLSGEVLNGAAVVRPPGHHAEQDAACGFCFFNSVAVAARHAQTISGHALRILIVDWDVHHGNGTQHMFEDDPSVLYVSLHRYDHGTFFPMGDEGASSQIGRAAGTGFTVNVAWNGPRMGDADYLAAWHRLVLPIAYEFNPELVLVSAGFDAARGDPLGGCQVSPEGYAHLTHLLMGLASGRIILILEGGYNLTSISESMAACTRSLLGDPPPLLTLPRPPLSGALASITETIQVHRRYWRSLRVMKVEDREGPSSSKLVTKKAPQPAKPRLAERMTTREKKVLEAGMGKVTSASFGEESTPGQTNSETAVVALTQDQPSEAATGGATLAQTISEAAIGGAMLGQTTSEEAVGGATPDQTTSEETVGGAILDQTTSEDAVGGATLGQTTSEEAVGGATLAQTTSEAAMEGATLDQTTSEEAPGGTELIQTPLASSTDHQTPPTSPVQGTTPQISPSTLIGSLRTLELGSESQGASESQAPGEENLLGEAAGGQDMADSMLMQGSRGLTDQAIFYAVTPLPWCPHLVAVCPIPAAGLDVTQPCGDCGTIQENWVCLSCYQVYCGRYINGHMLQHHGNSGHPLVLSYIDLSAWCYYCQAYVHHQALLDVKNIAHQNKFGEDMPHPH

Histone deacetylase 7 = target: T2, Histone deacetylase 7 (Homo sapiens, UniProt Q8WUI4); assay: Inhibition of HDAC7 (unknown origin)
T2 sequence (Q8WUI4 whole entry): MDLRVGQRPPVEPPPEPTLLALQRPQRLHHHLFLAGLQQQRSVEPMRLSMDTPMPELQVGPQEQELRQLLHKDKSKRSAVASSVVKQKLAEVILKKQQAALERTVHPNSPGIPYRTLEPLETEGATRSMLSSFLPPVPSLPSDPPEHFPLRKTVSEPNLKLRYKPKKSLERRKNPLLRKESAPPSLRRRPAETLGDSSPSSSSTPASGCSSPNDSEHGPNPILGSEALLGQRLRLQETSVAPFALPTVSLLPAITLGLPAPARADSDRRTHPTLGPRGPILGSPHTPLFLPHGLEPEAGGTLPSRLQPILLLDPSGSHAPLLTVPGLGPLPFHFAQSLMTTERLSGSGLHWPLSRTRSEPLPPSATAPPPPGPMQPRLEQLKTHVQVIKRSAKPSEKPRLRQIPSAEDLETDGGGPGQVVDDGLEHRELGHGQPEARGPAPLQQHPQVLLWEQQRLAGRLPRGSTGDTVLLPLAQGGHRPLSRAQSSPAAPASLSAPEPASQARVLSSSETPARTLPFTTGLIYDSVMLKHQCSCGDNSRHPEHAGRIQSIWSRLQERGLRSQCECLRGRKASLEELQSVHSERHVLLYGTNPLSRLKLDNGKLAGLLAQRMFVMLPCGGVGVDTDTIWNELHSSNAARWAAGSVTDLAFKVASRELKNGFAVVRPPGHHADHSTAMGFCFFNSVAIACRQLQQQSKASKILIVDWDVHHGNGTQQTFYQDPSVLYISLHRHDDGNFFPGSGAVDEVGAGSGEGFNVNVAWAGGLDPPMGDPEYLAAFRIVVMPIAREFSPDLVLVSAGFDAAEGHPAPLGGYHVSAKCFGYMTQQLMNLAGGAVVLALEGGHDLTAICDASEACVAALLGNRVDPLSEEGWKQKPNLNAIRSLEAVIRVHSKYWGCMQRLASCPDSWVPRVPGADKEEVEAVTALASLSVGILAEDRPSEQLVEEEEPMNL

Histone deacetylase 8 = target: T3, Histone deacetylase 8 (Homo sapiens, UniProt Q9BY41); assay: Inhibition of HDAC8 (unknown origin)
T3 sequence (Q9BY41 whole entry): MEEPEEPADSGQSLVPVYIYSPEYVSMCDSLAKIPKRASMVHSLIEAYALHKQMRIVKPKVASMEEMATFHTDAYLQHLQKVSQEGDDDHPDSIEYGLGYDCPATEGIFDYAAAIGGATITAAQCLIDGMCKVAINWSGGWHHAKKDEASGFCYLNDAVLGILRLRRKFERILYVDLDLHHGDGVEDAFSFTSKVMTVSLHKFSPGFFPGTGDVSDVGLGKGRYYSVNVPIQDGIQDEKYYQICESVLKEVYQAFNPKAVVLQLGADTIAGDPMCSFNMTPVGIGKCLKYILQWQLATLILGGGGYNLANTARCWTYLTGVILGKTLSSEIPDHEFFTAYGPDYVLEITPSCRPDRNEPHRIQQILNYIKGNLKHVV

Histone deacetylase 9 = Histone deacetylase 9 (Homo sapiens, UniProt Q9UKV0); assay: Inhibition of HDAC9 (unknown origin)
Histone deacetylase 9, sequence (Q9UKV0 whole entry): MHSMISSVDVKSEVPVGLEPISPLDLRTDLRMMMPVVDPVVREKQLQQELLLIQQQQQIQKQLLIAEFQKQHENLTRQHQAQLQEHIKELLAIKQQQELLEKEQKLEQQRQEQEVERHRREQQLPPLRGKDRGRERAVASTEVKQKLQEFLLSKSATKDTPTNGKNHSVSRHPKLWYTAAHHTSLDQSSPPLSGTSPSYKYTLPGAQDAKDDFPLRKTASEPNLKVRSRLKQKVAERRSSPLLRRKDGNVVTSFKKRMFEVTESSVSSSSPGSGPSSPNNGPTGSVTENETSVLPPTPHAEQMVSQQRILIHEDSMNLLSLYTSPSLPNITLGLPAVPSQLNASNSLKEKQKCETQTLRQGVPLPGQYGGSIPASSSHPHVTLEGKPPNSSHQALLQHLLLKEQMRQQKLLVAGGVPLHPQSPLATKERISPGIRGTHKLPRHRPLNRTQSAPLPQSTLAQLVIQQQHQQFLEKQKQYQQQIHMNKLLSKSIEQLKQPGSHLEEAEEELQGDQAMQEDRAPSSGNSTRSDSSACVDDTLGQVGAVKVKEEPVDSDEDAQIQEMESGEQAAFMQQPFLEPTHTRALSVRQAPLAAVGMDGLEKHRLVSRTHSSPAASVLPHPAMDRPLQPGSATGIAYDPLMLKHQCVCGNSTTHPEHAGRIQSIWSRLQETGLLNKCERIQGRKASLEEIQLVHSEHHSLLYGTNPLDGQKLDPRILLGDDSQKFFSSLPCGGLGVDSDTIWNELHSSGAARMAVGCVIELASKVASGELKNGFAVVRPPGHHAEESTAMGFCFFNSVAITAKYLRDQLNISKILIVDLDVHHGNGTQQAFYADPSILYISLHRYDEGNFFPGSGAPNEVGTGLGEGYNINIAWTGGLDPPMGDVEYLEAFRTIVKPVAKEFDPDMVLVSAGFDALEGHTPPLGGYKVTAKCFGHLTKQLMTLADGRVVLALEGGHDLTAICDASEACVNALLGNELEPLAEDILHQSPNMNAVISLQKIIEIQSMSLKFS

[2] = target: T4, Polyamine deacetylase HDAC10 (Homo sapiens, UniProt Q969S8); assay: Inhibition of HDAC10 (unknown origin)
T4 sequence (Q969S8 whole entry): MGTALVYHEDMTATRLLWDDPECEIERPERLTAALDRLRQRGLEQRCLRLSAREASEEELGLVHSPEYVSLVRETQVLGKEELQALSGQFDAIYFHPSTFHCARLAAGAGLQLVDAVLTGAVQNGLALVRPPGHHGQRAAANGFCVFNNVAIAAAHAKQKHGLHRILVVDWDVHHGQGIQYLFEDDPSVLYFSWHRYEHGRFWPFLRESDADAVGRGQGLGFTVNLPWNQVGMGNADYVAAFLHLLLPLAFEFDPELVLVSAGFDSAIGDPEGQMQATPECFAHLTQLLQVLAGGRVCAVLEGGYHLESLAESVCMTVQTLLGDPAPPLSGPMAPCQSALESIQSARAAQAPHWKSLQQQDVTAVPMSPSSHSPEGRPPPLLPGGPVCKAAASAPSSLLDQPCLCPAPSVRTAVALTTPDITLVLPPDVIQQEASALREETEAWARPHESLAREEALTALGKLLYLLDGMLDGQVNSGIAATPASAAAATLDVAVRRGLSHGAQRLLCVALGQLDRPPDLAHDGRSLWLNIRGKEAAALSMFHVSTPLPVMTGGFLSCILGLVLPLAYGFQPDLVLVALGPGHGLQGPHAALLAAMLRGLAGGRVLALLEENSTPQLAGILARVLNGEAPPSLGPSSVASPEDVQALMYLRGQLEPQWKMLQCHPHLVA

Histone deacetylase 11 = target: T5, Histone deacetylase 11 (Homo sapiens, UniProt Q96DB2); assay: Inhibition of HDAC11 (unknown origin)
T5 sequence (Q96DB2 whole entry): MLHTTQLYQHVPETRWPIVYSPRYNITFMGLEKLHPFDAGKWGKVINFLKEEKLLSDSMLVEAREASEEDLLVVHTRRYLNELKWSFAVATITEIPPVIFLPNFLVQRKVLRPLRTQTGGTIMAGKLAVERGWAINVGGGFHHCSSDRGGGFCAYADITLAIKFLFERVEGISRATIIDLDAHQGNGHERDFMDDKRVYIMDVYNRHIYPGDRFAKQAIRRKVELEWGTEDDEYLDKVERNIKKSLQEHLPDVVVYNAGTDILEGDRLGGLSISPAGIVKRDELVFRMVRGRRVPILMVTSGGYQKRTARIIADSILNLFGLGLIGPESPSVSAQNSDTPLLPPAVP

Histone deacetylase 4 = Histone deacetylase 4 (Homo sapiens, UniProt P56524); assay: Inhibition of HDAC4 (unknown origin)
Histone deacetylase 4, sequence (P56524 whole entry): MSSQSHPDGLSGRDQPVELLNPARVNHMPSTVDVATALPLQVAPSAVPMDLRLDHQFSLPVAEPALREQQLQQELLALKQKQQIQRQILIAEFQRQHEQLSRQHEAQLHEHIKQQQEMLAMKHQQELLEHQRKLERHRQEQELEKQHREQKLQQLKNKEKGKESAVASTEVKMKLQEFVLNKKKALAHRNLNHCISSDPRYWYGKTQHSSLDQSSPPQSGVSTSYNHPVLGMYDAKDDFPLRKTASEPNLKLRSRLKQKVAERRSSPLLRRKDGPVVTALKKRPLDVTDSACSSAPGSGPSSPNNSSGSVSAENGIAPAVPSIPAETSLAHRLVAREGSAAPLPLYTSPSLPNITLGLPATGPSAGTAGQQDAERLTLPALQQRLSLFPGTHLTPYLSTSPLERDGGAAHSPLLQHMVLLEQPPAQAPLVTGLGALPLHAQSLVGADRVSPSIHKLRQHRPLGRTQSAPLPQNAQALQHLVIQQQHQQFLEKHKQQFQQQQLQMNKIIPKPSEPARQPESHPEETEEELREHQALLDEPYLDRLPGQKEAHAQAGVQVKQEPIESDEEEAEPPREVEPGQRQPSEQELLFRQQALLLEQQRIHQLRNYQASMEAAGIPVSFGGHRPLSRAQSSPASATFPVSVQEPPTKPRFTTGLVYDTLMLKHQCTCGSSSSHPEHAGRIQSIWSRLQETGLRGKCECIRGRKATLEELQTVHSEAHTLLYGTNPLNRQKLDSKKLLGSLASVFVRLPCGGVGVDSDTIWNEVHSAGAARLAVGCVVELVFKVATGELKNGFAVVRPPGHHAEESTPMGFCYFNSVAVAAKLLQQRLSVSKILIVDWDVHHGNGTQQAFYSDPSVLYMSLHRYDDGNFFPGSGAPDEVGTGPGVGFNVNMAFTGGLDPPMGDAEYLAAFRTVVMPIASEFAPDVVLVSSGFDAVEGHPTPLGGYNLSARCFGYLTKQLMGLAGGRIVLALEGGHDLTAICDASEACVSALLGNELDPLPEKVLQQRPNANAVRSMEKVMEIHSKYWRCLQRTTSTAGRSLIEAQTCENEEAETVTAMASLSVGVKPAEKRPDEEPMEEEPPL

Vasopressin V1a receptor = Vasopressin V1a receptor (Homo sapiens, UniProt P37288); assay: Inhibition of Vasopressin V1A receptor (unknown origin)
Vasopressin V1a receptor, sequence (P37288 whole entry): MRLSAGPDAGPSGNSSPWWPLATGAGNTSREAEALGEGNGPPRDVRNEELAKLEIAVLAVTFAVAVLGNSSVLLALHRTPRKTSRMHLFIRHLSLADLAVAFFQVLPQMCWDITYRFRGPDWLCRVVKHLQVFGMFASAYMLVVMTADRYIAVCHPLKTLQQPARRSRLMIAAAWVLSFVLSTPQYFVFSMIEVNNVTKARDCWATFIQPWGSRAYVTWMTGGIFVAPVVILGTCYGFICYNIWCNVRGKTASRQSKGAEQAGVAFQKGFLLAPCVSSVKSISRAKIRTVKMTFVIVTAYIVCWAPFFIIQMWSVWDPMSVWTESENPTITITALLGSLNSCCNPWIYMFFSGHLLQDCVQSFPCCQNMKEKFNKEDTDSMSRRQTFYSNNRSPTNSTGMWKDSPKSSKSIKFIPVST

Spike glycoprotein = Spike glycoprotein (Severe acute respiratory syndrome coronavirus 2, UniProt P0DTC2); assay: Binding affinity to SARS-Cov-2 Spike protein assessed as dissociation constant

Sphingosine kinase 1, sequence (Q9NYA1 whole entry): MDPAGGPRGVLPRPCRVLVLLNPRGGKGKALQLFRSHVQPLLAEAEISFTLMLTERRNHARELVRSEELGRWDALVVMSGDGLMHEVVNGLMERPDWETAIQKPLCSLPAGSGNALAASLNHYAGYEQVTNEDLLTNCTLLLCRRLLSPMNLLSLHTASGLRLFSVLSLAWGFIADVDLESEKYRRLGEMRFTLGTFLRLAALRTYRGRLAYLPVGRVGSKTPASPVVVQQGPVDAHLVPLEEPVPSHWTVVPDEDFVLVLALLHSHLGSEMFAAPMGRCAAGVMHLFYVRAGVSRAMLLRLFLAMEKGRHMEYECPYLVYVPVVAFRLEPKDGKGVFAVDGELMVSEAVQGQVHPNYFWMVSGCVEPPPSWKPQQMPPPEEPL

In the case of `NCCCNCCCCNCCCNC1=Nc2ccccc2CCC1`, the IC50 (MCF7) is reported as > 50 µM.
With `Brc1cc2c(c3ccccc13)N1OC(C2)CC1CCc1ccccc1` (stereo not given) the IC50 (Sphingosine kinase 1) was > 650 µM.
Compound `O=C(NO)c1ccc(CN2c3cc(C(F)(F)F)ccc3S(=O)(=O)C[C@H]3CCCC[C@H]32)cc1` has an IC50 (Histone deacetylase 1) of 8.8 µM, an IC50 (Histone deacetylase 3) of 16 µM and an IC50 (Histone deacetylase 2) of 16 µM. The IC50 (Histone deacetylase 5) was 22 µM, the IC50 [1] was 10 nM and the IC50 (Histone deacetylase 7) was 15 µM. The IC50 (Histone deacetylase 8) was 2 µM, the IC50 (Histone deacetylase 9) was > 30 µM and the IC50 [2] was 9.4 µM. For the same compound, the IC50 (Histone deacetylase 11) was 850 nM.
In the case of `O=C(NO)c1ccc(CN2c3ccccc3SC[C@H]3CCCC[C@H]32)cc1`, the IC50 (Histone deacetylase 1) is reported as > 30 µM, the IC50 (Histone deacetylase 4) is reported as > 30 µM and the IC50 (Histone deacetylase 5) is reported as 27 µM. The IC50 [1] was 30 nM, the IC50 (Histone deacetylase 7) was > 30 µM and the IC50 (Histone deacetylase 8) was 5.3 µM. The IC50 (Histone deacetylase 9) was 25 µM, the IC50 [2] was > 30 µM and the IC50 (Histone deacetylase 11) was 1500 nM.
`CC1C[C@]2(C)C(NCCCNCCCCNCCCN)=Nc3ccccc3[C@]2(C)N(C)c2ccccc21` (stereo not given in full) was tested, and the IC50 (MCF7) was 9.84 µM.
For `Cc1ccccc1C(=O)Nc1ccc(C(=O)N2CCC[C@H](N(C)C)c3ccccc32)cc1`, the IC50 (Vasopressin V1a receptor) was 14 µM.
With `CC1Cc2c(Cl)nc(-c3ccccc3)nc2N(C)c2ccc(O)cc21` (stereo not given) the IC50 (Sphingosine kinase 1) was > 650 µM.
`CN1CCCC(n2nc(Cc3ccc(Cl)cc3)c3ccccc3c2=O)CC1` (stereo not given) [AZELASTINE] gave a Kd (Spike glycoprotein) of 258 nM.
